One block for each molecule: values may come before it.
Columns and labels:
Assay type in all cases: cell-based
[1] = target: T1, human somatostatin receptor subtype 2a (Homo sapiens, UniProt P30874); assay: cAMP assay for SSTR2a agonists (HTRF cAMP kit, NKH-477 stimulated); details: CHO cells stably expressing human SSTR2a, 1.6 μM NKH-477
T1 construct: expressed in transfected cells
Description: Chinese hamster ovary (CHO) cells stably expressing one of the six human or rodent somatostatin receptor subtypes are grown to 85-100% confluence on standard tissue culture dishes in F12-Ham's growth media (Hyclone) with following additives: 10% donor calf serum (Hyclone), 200 U/mL penicillin (Hyclone), 200 μg/mL streptomycin (Hyclone), 20 mM HEPES (Hyclone), 200 μg/mL hygromycin Hyclone.
General overview: All SSTR subtypes are Gi coupled G-protein coupled receptors (GPCRs) that lead to decreases in intracellular cyclic AMP (cAMP) when activated by an agonist. Therefore, measurement of intracellular cAMP levels can be used to assess whether compounds of the invention are agonists of SSTR subtypes (John Kelly, Troy Stevens, W. Joseph Thompson, and Roland Seifert, Current Protocols in Pharmacology, 2005, 2.2.1-2.2). One example of an intracellular cAMP assay is described below.
Four days prior to the assay, 5000 Chinese hamster ovary (CHO) cells stably expressing the human somatostatin receptor subtype 2a are plated in each well of a 96-well tissue culture plate (Nest Biotech Cell, flat bottom with low evaporation tissue culture treated; Polystyrene; Non-Pyrogenic) in F12-Ham's media (100 μL/well) supplemented with 200 μg/mL of hygromycin. Incubate at 37 C, 5% CO2, 95% humidity for four days. The cells should reach full confluence. On the day of the assay, various dilutions of the compounds of the invention are prepared in assay buffer (HRTF cAMP kit, Cisbio) in the presence of 1.6 μM NKH-477 (a water-soluble forskolin derivative) and 50 μL of the dilutions are added to the cultured cells and incubated for 20 minutes at 37° C. […] 50 μL of lysis buffer (HRTF cAMP kit, Cisbio) is added to each well and incubated at room temperature for 30 minutes, after which 150 μL assay buffer is added to each well. In a 384-well plate (Grenier, 784-080), 10 μL of assay mixture is added to 10 μL of developing mixture, containing cAMP detection and visualization antibodies are added and the assay is allowed incubate for 1-24 hours at room temperature. The intracellular cAMP concentrations are then measured using a commercially available detection kit (for example, the cAMP HTRF kit, Cisbio). The measured intracellular cAMP concentrations are plotted vs. the concentration of the compounds of the invention and the EC50 of the compounds are calculated using standard methods.

SSTR1 = target: T2, SSTR1 (Homo sapiens, UniProt P30872); assay: cAMP functional agonist assay, CHO cells expressing SSTR1; details: CHO cells stably expressing SSTR1, cAMP; read-out: SSTR1 EC50
T2 construct: expressed in transfected cells
Outline: (§1)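 CHO cells stably expressing the human or rodent somatostatin receptor subtype. Agonism measured as decrease in intracellular cAMP via Gi coupling.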

SSTR3 = SSTR3 (UniProt P32745); assay: cAMP functional agonist assay, CHO cells expressing SSTR3; details: CHO cells stably expressing SSTR3, cAMP
Outline: (§2)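 CHO cells stably expressing a single somatostatin receptor subtype, grown to 85–100% confluence in F12-Ham's with 10% donor calf serum and hygromycin. Agonism assessed as a decrease in intracellular cAMP via Gi coupling.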

SSTR4 = target: T3, SSTR4 (Homo sapiens, UniProt P31391); assay: cAMP functional agonist assay, CHO cells expressing SSTR4; details: CHO cells stably expressing SSTR4, cAMP; read-out: SSTR4 EC50
T3 construct: expressed in transfected cells
Outline: as §1

SSTR5 = target: T4, SSTR5 (Homo sapiens, UniProt P35346); assay: cAMP functional agonist assay, CHO cells expressing SSTR5; details: CHO cells stably expressing SSTR5, cAMP
T4 construct: expressed in transfected cells
Outline: as §2

T1 sequence (P30874 whole entry): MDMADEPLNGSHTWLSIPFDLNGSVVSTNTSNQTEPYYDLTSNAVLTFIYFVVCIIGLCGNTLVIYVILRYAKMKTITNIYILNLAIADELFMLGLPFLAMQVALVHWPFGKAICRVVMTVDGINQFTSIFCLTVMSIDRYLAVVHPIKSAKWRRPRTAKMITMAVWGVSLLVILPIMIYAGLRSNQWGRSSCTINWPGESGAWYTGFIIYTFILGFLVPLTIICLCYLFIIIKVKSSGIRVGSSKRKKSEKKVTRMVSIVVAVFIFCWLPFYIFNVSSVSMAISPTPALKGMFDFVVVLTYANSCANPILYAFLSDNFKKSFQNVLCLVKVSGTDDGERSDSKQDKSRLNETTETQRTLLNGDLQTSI
T3 sequence (P31391 whole entry): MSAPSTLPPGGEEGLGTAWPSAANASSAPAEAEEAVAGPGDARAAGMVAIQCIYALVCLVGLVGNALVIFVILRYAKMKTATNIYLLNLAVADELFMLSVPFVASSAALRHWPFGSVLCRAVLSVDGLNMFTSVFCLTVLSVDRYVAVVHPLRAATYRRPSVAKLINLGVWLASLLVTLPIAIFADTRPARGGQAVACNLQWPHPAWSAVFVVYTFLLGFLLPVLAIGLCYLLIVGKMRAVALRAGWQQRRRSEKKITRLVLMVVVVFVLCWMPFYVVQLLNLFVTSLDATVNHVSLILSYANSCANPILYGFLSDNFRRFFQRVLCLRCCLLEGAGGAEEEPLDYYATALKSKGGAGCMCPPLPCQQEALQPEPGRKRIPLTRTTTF
T2 sequence (P30872 whole entry): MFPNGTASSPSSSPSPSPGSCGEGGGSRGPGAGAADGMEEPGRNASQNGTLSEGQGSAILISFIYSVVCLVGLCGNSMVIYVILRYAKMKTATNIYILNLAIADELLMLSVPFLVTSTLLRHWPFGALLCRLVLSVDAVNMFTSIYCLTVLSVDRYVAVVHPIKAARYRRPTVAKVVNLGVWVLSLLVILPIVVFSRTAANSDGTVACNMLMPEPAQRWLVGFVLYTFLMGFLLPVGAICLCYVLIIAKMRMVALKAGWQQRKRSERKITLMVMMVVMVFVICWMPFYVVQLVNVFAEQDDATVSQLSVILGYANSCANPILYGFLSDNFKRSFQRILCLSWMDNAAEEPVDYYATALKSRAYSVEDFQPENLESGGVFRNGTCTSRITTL
T4 sequence (P35346 whole entry): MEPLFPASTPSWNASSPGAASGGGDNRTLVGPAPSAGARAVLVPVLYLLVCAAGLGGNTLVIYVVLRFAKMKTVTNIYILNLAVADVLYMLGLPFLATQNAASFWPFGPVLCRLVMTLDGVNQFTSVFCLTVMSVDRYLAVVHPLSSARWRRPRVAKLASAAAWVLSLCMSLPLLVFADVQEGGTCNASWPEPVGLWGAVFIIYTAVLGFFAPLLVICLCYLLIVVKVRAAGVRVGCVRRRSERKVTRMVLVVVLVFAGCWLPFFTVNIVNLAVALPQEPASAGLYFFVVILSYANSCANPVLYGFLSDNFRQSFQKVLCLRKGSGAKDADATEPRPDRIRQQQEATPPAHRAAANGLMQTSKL
Sequence of SSTR3 (P32745 whole entry): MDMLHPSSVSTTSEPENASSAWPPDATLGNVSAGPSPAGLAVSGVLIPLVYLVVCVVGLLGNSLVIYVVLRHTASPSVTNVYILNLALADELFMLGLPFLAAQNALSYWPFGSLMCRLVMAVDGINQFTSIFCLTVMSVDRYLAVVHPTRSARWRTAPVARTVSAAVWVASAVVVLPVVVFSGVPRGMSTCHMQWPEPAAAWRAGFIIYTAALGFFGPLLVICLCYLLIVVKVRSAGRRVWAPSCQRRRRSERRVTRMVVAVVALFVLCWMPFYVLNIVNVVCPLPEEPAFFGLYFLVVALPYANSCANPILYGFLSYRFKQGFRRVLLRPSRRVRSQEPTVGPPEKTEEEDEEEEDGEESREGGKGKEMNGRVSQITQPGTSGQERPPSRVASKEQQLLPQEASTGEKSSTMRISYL

Structure (SMILES): Cc1cc(Cl)cc(-c2cnc3ncn(-c4cc(F)cc(C(N)=O)c4)c(=O)c3c2CN(C)C[C@@H]2CCCN2)c1 [Compound A-50, 3-[6-(3-chloro-5-methylphenyl)-5-({methyl[(2S)-pyrrolidin-2-ylmethyl]amino}methyl)-4-oxo-3H,4H-pyrido[2,3-d]pyrimidin-3-yl]-5-fluorobenzamide]
EC50 [1]: < 100 nM | EC50 (SSTR1): 100 to 10000 nM | EC50 (SSTR3): 100 to 10000 nM | EC50 (SSTR4): < 100 nM | EC50 (SSTR5): > 10000 nM

Structure (SMILES): Cc1cc(Cl)cc(-c2cnc3ncn(-c4cc(F)cc(C(N)=O)c4)c(=O)c3c2CN(C)C[C@H]2CCCN2)c1 [Compound A-51, 3-[6-(3-chloro-5-methylphenyl)-5-({methyl[(2R)-pyrrolidin-2-ylmethyl]amino}methyl)-4-oxo-3H,4H-pyrido[2,3-d]pyrimidin-3-yl]-5-fluorobenzamide]
EC50 [1]: < 100 nM | EC50 (SSTR1): > 10000 nM | EC50 (SSTR3): < 100 nM | EC50 (SSTR4): < 100 nM | EC50 (SSTR5): > 10000 nM

Structure (SMILES): Cc1cc(Cl)cc(-c2cnc3ncn(-c4cc(O)ccc4F)c(=O)c3c2CN(C)C[C@@H]2CCCN2)c1 [Compound A-54, 6-(3-chloro-5-methylphenyl)-3-(2-fluoro-5-hydroxyphenyl)-5-({methyl[(2S)-pyrrolidin-2-ylmethyl]amino}methyl)-3H,4H-pyrido[2,3-d]pyrimidin-4-one]
EC50 [1]: < 100 nM | EC50 (SSTR1): 100 to 10000 nM | EC50 (SSTR3): < 100 nM | EC50 (SSTR4): < 100 nM | EC50 (SSTR5): > 10000 nM

Structure (SMILES): Cc1cc(C)cc(-c2cnc3nc(C)n(-c4cc(O)cc(F)c4)c(=O)c3c2CN(C)C[C@@H]2CCCN2)c1 [Compound A-55, 6-(3,5-dimethylphenyl)-3-(3-fluoro-5-hydroxyphenyl)-2-methyl-5-({methyl[(2S)-pyrrolidin-2-ylmethyl]amino}methyl)-3H,4H-pyrido[2,3-d]pyrimidin-4-one]
EC50 [1]: < 100 nM | EC50 (SSTR1): > 10000 nM | EC50 (SSTR3): 100 to 10000 nM | EC50 (SSTR4): < 100 nM | EC50 (SSTR5): 100 to 10000 nM

Structure (SMILES): CCc1nc2ncc(-c3cc(C)cc(Cl)c3)c(CN(C)C[C@@H]3CCCN3)c2c(=O)n1-c1cccc(O)c1 [Compound A-57, 6-(3-chloro-5-methylphenyl)-2-ethyl-3-(3-hydroxyphenyl)-5-({methyl[(2S)-pyrrolidin-2-ylmethyl]amino}methyl)-3H,4H-pyrido[2,3-d]pyrimidin-4-one]
EC50 [1]: < 100 nM | EC50 (SSTR1): 100 to 10000 nM | EC50 (SSTR3): < 100 nM | EC50 (SSTR4): < 100 nM | EC50 (SSTR5): 100 to 10000 nM

Structure (SMILES): Cc1cc(Cl)cc(-c2cnc3nc(C(C)C)n(-c4cccc(O)c4)c(=O)c3c2CN(C)C[C@@H]2CCCN2)c1 [Compound A-58, 6-(3-chloro-5-methylphenyl)-3-(3-hydroxyphenyl)-5-({methyl[(2S)-pyrrolidin-2-ylmethyl]amino}methyl)-2-(propan-2-yl)-3H,4H-pyrido[2,3-d]pyrimidin-4-one]
EC50 [1]: < 100 nM | EC50 (SSTR1): 100 to 10000 nM | EC50 (SSTR3): 100 to 10000 nM | EC50 (SSTR4): < 100 nM | EC50 (SSTR5): 100 to 10000 nM

Structure (SMILES): Cc1cc(Cl)cc(-c2cnc3nc(C)n(-c4cc(O)cc(F)c4)c(=O)c3c2CN(C)C[C@@H]2CCCN2)c1 [Compound A-59, 6-(3-chloro-5-methylphenyl)-3-(3-fluoro-5-hydroxyphenyl)-2-methyl-5-({methyl[(2S)-pyrrolidin-2-ylmethyl]amino}methyl)-3H,4H-pyrido[2,3-d]pyrimidin-4-one]
EC50 [1]: < 100 nM | EC50 (SSTR1): > 10000 nM | EC50 (SSTR3): < 100 nM | EC50 (SSTR4): < 100 nM | EC50 (SSTR5): 100 to 10000 nM

Next, values leading:

EC50 [1]: < 100 nM | EC50 (SSTR1): 100 to 10000 nM | EC50 (SSTR3): < 100 nM | EC50 (SSTR4): < 100 nM | EC50 (SSTR5): 100 to 10000 nM
Structure (SMILES): CC[C@H](N)CN(C)Cc1c(-c2cc(C)cc(C)c2)cnc2ncn(-c3cc(O)cc(F)c3)c(=O)c12 [Compound A-62, 5-({[(2S)-2-aminobutyl](methyl)amino}methyl)-6-(3,5-dimethylphenyl)-3-(3-fluoro-5-hydroxyphenyl)-3H,4H-pyrido[2,3-d]pyrimidin-4-one]

EC50 [1]: < 100 nM | EC50 (SSTR1): 100 to 10000 nM | EC50 (SSTR3): < 100 nM | EC50 (SSTR4): < 100 nM | EC50 (SSTR5): 100 to 10000 nM
Structure (SMILES): CC[C@H](N)CN(C)Cc1c(-c2cc(C)cc(Cl)c2)cnc2ncn(-c3cc(O)cc(C(F)(F)F)c3)c(=O)c12 [Compound A-65, 5-({[(2S)-2-aminobutyl](methyl)amino}methyl)-6-(3-chloro-5-methylphenyl)-3-[3-hydroxy-5-(trifluoromethyl)phenyl]-3H,4H-pyrido[2,3-d]pyrimidin-4-one]

EC50 [1]: 100 to 10000 nM | EC50 (SSTR1): > 10000 nM | EC50 (SSTR3): > 10000 nM | EC50 (SSTR4): 100 to 10000 nM | EC50 (SSTR5): > 10000 nM
Structure (SMILES): CCOC(=O)CNCCN(CC)Cc1c(-c2cc(C)cc(C)c2)cnc2ncn(-c3cccc(O)c3)c(=O)c12 [Compound A-68]

EC50 [1]: < 100 nM | EC50 (SSTR1): 100 to 10000 nM | EC50 (SSTR3): < 100 nM | EC50 (SSTR4): < 100 nM | EC50 (SSTR5): 100 to 10000 nM
Structure (SMILES): Cc1cc(C)c(F)c(-c2cnc3ncn(-c4cccc(O)c4)c(=O)c3c2CN(C)CC2CCCCN2)c1 (stereo not shown) [Compound A-70, 6-(2-Fluoro-3,5-dimethyl-phenyl)-3-(3-hydroxy-phenyl)-5-[(methyl-piperidin-2-ylmethyl-amino)-methyl]-3H-pyrido[2,3-d]pyrimidin-4-one]
